Experimental data reported in patent publication US5652366A, “DI (1R)-(-)camphosulfonic acid) salt, preparation thereof and use thereof” (Rhone-Poulenc Rorer Pharmaceuticals Inc., priority 1995, dated 1997).
Like-named read-outs stand apart in the source and are kept apart here.

Columns and labels:
[1] = test system: normotensive anesthetized rat; experiment: In vivo mean arterial pressure and heart rate in normotensive anesthetized rat; conditions: iv
Description: Normotensive rats were anesthetized with sodium pentobarbital (50 mg/kg, j.p.) and placed on a heated surgical table. Cannulas were inserted into the femoral artery and […] to allow the measurement of arterial pressure and to facilitate the intravenous administration of test compounds. The animals was allowed to equilibrate for 10 minutes after surgery. Mean arterial pressure was continuously measured and recorded and heart rate was monitored using the arterial pressure pulse to trigger a cardiotachometer. After baseline parameters were established and recorded, increasing doses (1, 3, 10, 30, 100, 300 and 1000 μg/kg) of the compound of the invention to be tested were administered intravenously. Maximal changes in the cardiovascular parameters were observed after each dose of the adenosine agonist. Only one compound was administered per rat.

A2 adenosine receptor = A2 adenosine receptor (Rattus norvegicus, UniProt P30543); experiment: biochemical; conditions: rat brain striatum membranes, 3H-CGS 21680; Table II; read-out: Adenosine Receptor Binding Activity/IC50 (nM) A2
Chain of A2 adenosine receptor (P30543 whole entry): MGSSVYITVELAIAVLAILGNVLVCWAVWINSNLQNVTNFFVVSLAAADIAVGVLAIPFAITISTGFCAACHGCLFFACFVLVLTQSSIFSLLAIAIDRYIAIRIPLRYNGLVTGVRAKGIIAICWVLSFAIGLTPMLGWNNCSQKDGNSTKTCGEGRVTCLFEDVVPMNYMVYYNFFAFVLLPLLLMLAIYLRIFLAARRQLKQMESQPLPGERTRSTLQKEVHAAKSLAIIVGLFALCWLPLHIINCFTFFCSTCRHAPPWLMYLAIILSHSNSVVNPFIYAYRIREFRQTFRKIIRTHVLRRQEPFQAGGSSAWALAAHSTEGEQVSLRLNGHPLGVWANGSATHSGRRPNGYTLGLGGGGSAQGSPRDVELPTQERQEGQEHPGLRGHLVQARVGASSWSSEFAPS

swine coronary arteries = experiment: In vitro vasorelaxation in isolated swine coronary arteries (PGF2α-contracted rings); format: cell-based; conditions: Sus scrofa, Table II
Description: Swine coronary arteries were obtained from a local slaughter house, dissected carefully and cleaned of fat, blood and adhering tissue. Rings approximately 2-3 mm wide were cut and transferred to water-jacketed tissue baths (10 ml) filled with warm (37° C.), oxygenated (O2 /CO2 :95%/5%) Krebs-Henseleit buffer and mounted on L-shaped hooks between stainless steel rods and a force transducer. […] Rings were equilibrated for 90 minutes with frequent buffer changes at a resting tension of 5 g In order to assure optimal tension development, arterial rings were primed twice with 36 mM KCl and once with 10 μm. PGF2α, before being exposed to 3 μM PGF2α. […] Tension achieved with 3 μM PGF2α was considered .equivalent to 100%; all other values were expressed as a percentage of that maximum.

[2] = test system: spontaneously hypertensive rat (SHR); experiment: Oral antihypertensive activity in conscious spontaneously hypertensive rat (SHR); format: in vivo
Description: The oral antihypertensive activity of compounds of the invention were examined in conscious spontaneously hypertensive rats. The rats were anesthetized with sodium pentabarbatol (50 mg/kg i.p.). A telemetry transducer was implanted into the rats abdomen via midline incision. The cannula of the transducer was inserted into the abdomenal aorta to allow direct measurement of arterial pressure in the conscious SHR. The transducer was secured to the abdomenal wall. After recovery from surgery (minimum of seven days), the SHR were placed on a receiver plate and the transducer/transmitter was activated. Systolic, diastolic and mean arterial pressure and heart rate were recorded for 1.5 hours in the unrestrained conscious rat to establish a stable baseline. Each rat then received a single dose of the compound of the invention to be tested, or vehicle, and changes in arterial pressure and heart rate were monitored for 20 hours and recorded.

A1 adenosine receptor = target: T1, A1 adenosine receptor (Rattus norvegicus, UniProt P25099); experiment: biochemical; conditions: rat whole brain membranes, 3H-CHA; Table II; read-out: Adenosine Receptor Binding Activity/IC50 (nM) A1
T1 sequence (P25099 1-326): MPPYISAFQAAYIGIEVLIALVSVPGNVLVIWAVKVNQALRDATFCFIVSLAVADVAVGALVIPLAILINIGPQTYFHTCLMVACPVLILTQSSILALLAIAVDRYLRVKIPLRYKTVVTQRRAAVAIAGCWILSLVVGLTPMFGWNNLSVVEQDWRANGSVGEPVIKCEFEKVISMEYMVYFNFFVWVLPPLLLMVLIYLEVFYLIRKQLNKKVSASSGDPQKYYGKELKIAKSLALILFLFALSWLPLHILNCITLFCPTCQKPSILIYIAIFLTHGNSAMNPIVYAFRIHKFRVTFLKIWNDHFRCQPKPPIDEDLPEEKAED
Description: Non-specific binding was assessed in the presence of 1 mM theophylline.
The assays were run in glass test tubes in duplicate at 25° C. Once the membranes were added, the tubes were vortexed and incubated at 25° C. for 60 minutes (A1 assay) or 90 minutes (A2 assay) on a rotary shaker. The assay tubes were vortexed halfway through the incubation and again near the end. The assays were terminated by rapid filtration through 2.4 cm GF/B filters using a Brandel Cell Harvestor. The test tubes were washed three times with cold 50 mM tris-HCl (pH 7.7 or 7.4), with filtration being completed within 15 seconds. The damp filter circles were placed in glass scintillation vials filled with 10 ml of Aquasol II (New England Nuclear). The vials were allowed to shake overnight on a rotary shaker and were placed into a liquid scintillation analyzer for two minute counts. IC50 values for receptor binding, i.e. the concentration at which a compound of the invention displaced the radiolabeled standard, were obtained using a curve-fitting computer program (RS/1, Bolt, Beranek and Newman, Boston, Mass.).

[3] = dose lowering heart rate by 25%, read-out: Blood Press/Heart Rate Anesthetized Rat HR/ED25
[4] = dose lowering mean arterial pressure by 25%, read-out: Blood Press/Heart Rate Anesthetized Rat MAP/ED25
[5] = 50% reduction in tension, 3 μM PGF2α, read-out: Vasorelaxation in Swine Coronary Artery/IC50

Row | SMILES | ED25 [1, 3] [µg/kg] | ED25 [1, 4] [µg/kg] | IC50 (A2 adenosine receptor) [nM] | EC50 (swine coronary arteries; [5]) [µM] | IC50 (A1 adenosine receptor) [nM] | further results
1 | CCNC(=O)[C@H]1C[C@@H](n2cnc3c(NCCNc4nc5ccccc5s4)ncnc32)[C@H](O)[C@@H]1O (relative stereo) [Example 29, (±)-N^6-[2-(2'-aminobenzothia-zolyl)ethyl]carbocyclic adenosine-5'-N-ethyl carboxamide] | 31 | 16 | > 1000 | 22 | 35.5 | SHR HR/% ([2]; 5 mg/kg, D = decrease): 12%; SHR MAP/% ([2]; 5 mg/kg, D = decrease): 18%
2 | Cc1nc(CCNc2ncnc3c2ncn3[C@@H]2O[C@H](CO)[C@@H](O)[C@H]2O)cs1 [Example 14, N^6-[2-(2'-methyl-4'-thiazolyl)-ethyl]adenosine] |  |  | > 1000 |  | 79.4 | 
3 | CCNC(=O)[C@H]1O[C@@H](n2cnc3c(NCCNc4nc5ccccc5s4)ncnc32)[C@H](O)[C@@H]1O [Example 23] | 7 | 6 | 891 | 4.4 | 0.32 | 
4 | CCNC(=O)[C@H]1C[C@@H](n2cnc3c(N[C@H](C)Cc4ccc(Cl)s4)ncnc32)[C@@H]2OC(=O)O[C@@H]21 [Example 44, (2S)-2α,3α-dihydroxy-4β-[N6-[2-(5-chloro-2-thienyl)-(1R)-1-methylethyl]amino-9-adenyl]cyclopentane-1β-N-ethylcarboxamide-2,3-carbonate] |  |  | 331 | 0.316 | 55 | 
5 | CCNC(=O)[C@H]1C[C@@H](n2cnc3c(NCCc4scnc4C)ncnc32)[C@H](O)[C@@H]1O (relative stereo) [Example 24, (±)-N^6-[2-(4"-methyl-5"-thiazolyl)thyl]carbocyclic adenosine-5'-N-ethyl carboxamide] | > 10 | 6 |  |  |  | SHR MAP/% ([2]; 5 mg/kg, D = decrease): 17%; SHR HR/% ([2]; 5 mg/kg, I = increase): 6%
6 | OC[C@H]1O[C@@H](n2cnc3c(N[C@@H]4CC=CC[C@H]4c4cccs4)ncnc32)[C@H](O)[C@@H]1O (relative stereo) [Example 4, N6-[trans-2-(thiophen-2-yl)cyclohex-4-en-yl]adenosine] | 19 | 13 |  | 0.73 |  | SHR HR/% ([2]; 5 mg/kg, D = decrease): 20%; SHR MAP/% ([2]; 5 mg/kg, D = decrease): 28%
7 | CCNC(=O)[C@H]1C[C@@H](n2cnc3c(N[C@H](C)Cc4cccs4)ncnc32)[C@H](O)[C@@H]1O (single isomer, unassigned) [Example 27] |  |  |  | 0.043 |  | SHR MAP/% ([2]; 1 mg/kg, D = decrease): 27%; SHR HR/% ([2]; 1 mg/kg, I = increase): 1%
8 | CCNC(=O)[C@H]1C[C@@H](n2cnc3c(N[C@H](C)Cc4ccc(Cl)s4)ncnc32)[C@@H]2OC(C)(C)O[C@@H]21 [6(1), (-)-[2S-[2α,3α-dimethylmethylenedioxy-4-β-[N6-[2-(5-chloro-2-thienyl)-(1R)-1-methylethyl]amino]-9-adenyl]cyclopentane]-1-β-N-ethylcarboxamide] |  |  | > 1000 | 19.1 | > 1000 | 
9 | OC[C@H]1O[C@@H](n2cnc3c(NCc4nc(-c5ccccc5)cs4)ncnc32)[C@H](O)[C@@H]1O [Example 19] |  |  | 1000 | 0.75 | 36 | 
10 | CC(C)(Cc1cccs1)Nc1ncnc2c1ncn2[C@@H]1O[C@H](CO)[C@@H](O)[C@H]1O [Example 17, N^6-[2-(1,1-dimethyl-2'-thiophenyl)ethyl]adenosine] |  |  | 5250 | 18.8 | 67.6 | 
11 | Cc1ncsc1CCNc1ncnc2c1ncn2[C@@H]1O[C@H](CO)[C@@H](O)[C@H]1O [Example 12, N^6-[2-(4'-methylthiazol-5'-yl)-ethyl]adenosine] | 17 | 4 | 224 | 0.5 | 23 | 
12 | CCNC(=O)[C@H]1C[C@@H](n2cnc3c(N[C@H](C)Cc4ccc(Cl)s4)ccnc32)[C@H](O)[C@@H]1O [Example 36, [1S-[1α,2β,3β,4α(S*)]]-4-[7-[[2-(5-chloro-2-thienyl)-1-methylethyl]amino]-3 H-imidazo[4,5-b]pyridin-3-yl]-N-ethyl-2,3-dihydroxycyclopentanecarboxamide] |  |  | 43.4 | 0.493 | 8.8 | 
13 | OC[C@H]1O[C@@H](n2cnc3c(N[C@@H]4CCCC[C@H]4c4cccs4)ncnc32)[C@H](O)[C@@H]1O (relative stereo) [Example 7, N^6-[trans-2-(thiophen-2-yl)-cyclohex-1-yl]adenosine] | 18 | 6 |  | 4 |  | SHR HR/% ([2]; 5 mg/kg, D = decrease): 22%; SHR MAP/% ([2]; 5 mg/kg, D = decrease): 45%
14 | C[C@H](Cc1sccc1Cl)Nc1ncnc2c1ncn2[C@@H]1O[C@H](CO)[C@@H](O)[C@H]1O [Example 32, N^6-[1-methyl-2-(3-chlorothien-2-yl)ethyl]adenosine] |  |  |  |  | 0.049 | 
15 | C[C@H](Cc1cc2ccccc2s1)Nc1ncnc2c1ncn2[C@@H]1O[C@H](CO)[C@@H](O)[C@H]1O [Example 15, N^6-[(R)-1-methyl-2-(2'benzo-[b]-thiophenyl)ethyl]adenosine] | 1.4 | 1.5 | 1000 |  |  | EC50 (swine coronary arteries; read-out: Vasorelaxation in Swine Coronary Artery/IC50 (μM), 50% reduction in tension, 3 μM PGF2α): 2.45 µM
16 | CCOc1ccc2nc(SCCNc3ncnc4c3ncn4[C@@H]3O[C@H](CO)[C@@H](O)[C@H]3O)sc2c1 [Example 11] |  |  | > 1000 |  | 7.4 | 
17 | OC[C@H]1O[C@@H](n2cnc3c(NCCNc4nc5ccccc5s4)ncnc32)[C@H](O)[C@@H]1O [Example 9, N^6-[2-(2'-aminobenzothia-zolyl)ethyl]adenosine] | 4 | 5 | 1000 | 11.9 | 4 | 
18 | OC[C@H]1O[C@@H](n2cnc3c(NCCc4nccs4)ncnc32)[C@H](O)[C@@H]1O [Example 13, N^6-[2-(2'-thiazolyl)ethyl]-adenosine] | > 10 | 3 | 191 | 0.24 | 41 | 
19 | Cc1csc(CNc2ncnc3c2ncn3[C@@H]2O[C@H](CO)[C@@H](O)[C@H]2O)n1 [Example 18, N^6-[2-(4'-methyl-2'-thiazolyl)-methyl]adenosine] | > 10 | 2 | 52 | 0.46 | 166 | 
20 | CCNC(=O)[C@H]1C[C@@H](n2cnc3c(N[C@H](CC)Cc4sccc4Cl)ncnc32)[C@H](O)[C@@H]1O [Example 34] |  |  | 23 | 0.072 | 1.6 | 
